Data taken from patent US20160264636A1, “PEPTIDE INHIBITORS OF TEAD/YAP-TAZ INTERACTION” (UNIVERSITE PIERRE ET MARIE CURIE (PARIS 6), priority 2013, published 2016).
Where two headings read alike, the source gives them in different places. Peptide text beside a SMILES is read from it.

How the values were obtained:
SKOV3 cells = experiment: MTT cytotoxicity assay, SKOV3; assay type: cell-based; conditions: Table VIII, 72 h, MTT, 25% cell death
Protocol: (§1) The cytotoxicity of penetrating peptides or chemotherapeutic agents, alone or in combination, was evaluated by the (3-(4,5-dimethylthiazol-2-yl)-2,5-diphenyltetrazolium bromide) tetrazolium (MTT) reduction assay. The cells were seeded in 96-well plates (100 μL/well) at a cell density defined from growth curves. After 24 hours of incubation, cells were treated with the peptides for 72 hours. The wells were rinsed two times with RPMI. After washing, 10 μl of stock MTT solution (5 mg/ml; MTT (SIGMA #M-2128) in PBS Dubecco's 1× without Ca^2+ and Mg^2+) was added to a final volume of 100 μl of culture medium. Cell lines were incubated for additional 4 hours at 37° C. under humid atmosphere with 5% (v/v) CO2. The formation of blue formazan crystals was detected under a microscope. An equal volume of 10% SDS (MERCK, #926.238) in 10 mM HCl was added to each well and the plate was placed in the incubator overnight to dissolve formazan crystals. The plates were mixed to ensure complete solubilisation of formazan crystals and absorbance was measured at 570 nm and 620 nm. The percentage of viable cells was estimated using the formula: % cell viability=ΔOD(570-620) treated/ΔOD(570-620)control×100.
(§2) ES2, IGROV-1, OVCAR8 and SKOV3 cell lines come from human ovarian cancer.
(§3) Cell-penetrating peptides (CPPs) comprising the binding site of TEAD to TAZ or YAP or of YAP to TEAD (TAZ, TEAD and YAP peptides, respectively) were chemically synthesized. The effect of the peptides on cell viability was assayed on several human ovarian cancer cell lines. All the ovarian cancer cell lines were treated for 72 h with different peptide concentrations. Cytotoxicity was analysed as described in example 2.

IGROV-1 cells = experiment: MTT cytotoxicity assay, IGROV; assay type: cell-based; conditions: Table VIII, 72 h, MTT, 25% cell death
Protocol: as §1, §2, §3

OVCAR8 cells = experiment: MTT cytotoxicity assay, OVCAR8; assay type: cell-based; conditions: Table VIII, 72 h, MTT, 25% cell death
Protocol: as §1, §2, §3

ES2 cells = experiment: MTT cytotoxicity assay, ES2; assay type: cell-based; conditions: Table VIII, 72 h, MTT, 25% cell death
Protocol: as §1, §2, §3

[1] = test system: colon, lung and ovarian cancer cell lines; experiment: MTT cytotoxicity, comparison of TAZ LV and VL peptides; assay type: cell-based, human; conditions: all lines tested except ES2: HCT116, HT29, SW480, OVCAR8, A549, HT1975; 72 h; 0.1 to 100 μM (FIGS. 5 to 8)
Protocol: as §1

H1650 cells = assay type: cell-based; conditions: for Letal Dose (μM) LD25: Table II, 72 h, MTT, 25% cell death
Protocol: (§4) H1650, H1975, H1299, A549 cell lines were cultured in DMEM medium supplemented with 10% of FCS. HBEC cell lines (wt and Ras V12) were cultured in KSFM supplemented with growth factors. All the cell lines come from human non small cell lung cancer (NSCLC).
as §1
(§5) Cell-penetrating peptides (CPPs) comprising the binding site of TEAD to TAZ or YAP or of YAP to TEAD (TAZ, TEAD and YAP peptides, respectively) were chemically synthesized. The effect of the peptides on cell viability was assayed on several human non small cell lung cancer (NSCLC) cell lines. All the lung cancer cell lines were treated for 72 h with different peptide concentrations. Cytotoxicity was analysed as described in Materials and Methods.

A549 cells = assay type: cell-based; conditions: for Letal Dose (μM) LD25: Table II, 72 h, MTT, 25% cell death
Protocol: as §4, §1, §5

H1975 cells = assay type: cell-based; conditions: for Letal Dose (μM) LD25: Table II, 72 h, MTT, 25% cell death
Protocol: as §4, §1, §5

H1299 cells = assay type: cell-based; conditions: for Letal Dose (μM) LD25: Table II, 72 h, MTT, 25% cell death
Protocol: as §4, §1, §5

HBEC wt cells = assay type: cell-based; conditions: for Letal Dose (μM) LD25: Table II, HBEC WT, 72 h, MTT, 25% cell death; for Cell viability (%): HBEC wt
Protocol: as §4, §1, §5

HBEC RasV12 cells = assay type: cell-based; conditions: for Letal Dose (μM) LD25: Table II, 72 h, MTT, 25% cell death
Protocol: as §4, §1, §5

[2] = test system: MP41 uveal melanoma cells; experiment: MTT cytotoxicity assay, MP41; assay type: cell-based, human; conditions: MP41; 100 μM; 72 h
Protocol: as §1
MP41, MP46 and MP66 cell lines come from uveal melanoma patient derived xenografts. They were cultured in RPMI medium supplemented with 20% of FCS.
All the uveal melanoma cell lines were treated for 72 h with different concentrations of the peptides TAZ, “LV”, YAP and TEAD (SEQ ID NO: 35, 36, 37). Cytotoxicity was analysed as described in example 2. […] The best effect was shown in MP41 with about 40% cytotoxicity at 100 μM.

[3] = Table III, drug alone vs its vehicle (HPCD10%, NaCl or Glucose 5%)
[4] = Table IV, drug alone vs its vehicle (Glucose 5% or NaCl)
[5] = Table V, drug alone vs its vehicle (Glucose 5% or NaCl)
[6] = Table VI, peptide alone vs HPCD 10%

| Molecule | Letal Dose (μM) LD25 (SKOV3 cells) [µM] | Letal Dose (μM) LD25 (IGROV-1 cells) [µM] | Letal Dose (μM) LD25 (OVCAR8 cells) [µM] | Letal Dose (μM) LD25 (ES2 cells) [µM] | Letal Dose (μM) LD25 (H1650 cells) [µM] | Cell viability (%) (H1650 cells; [5]) | Letal Dose (μM) LD25 (A549 cells) [µM] | Cell viability (%) (A549 cells; [5]) | Letal Dose (μM) LD25 (H1975 cells) [µM] | Cell viability (%) (H1975 cells; [5]) | Letal Dose (μM) LD25 (H1299 cells) [µM] | Cell viability (%) (H1299 cells; [5]) | Letal Dose (μM) LD25 (HBEC wt cells) [µM] | Cell viability (%) (HBEC wt cells; [5]) | Letal Dose (μM) LD25 (HBEC RasV12 cells) [µM] | Cell viability (%) (HBEC RasV12 cells; [5]) | also measured |
| --- | --- | --- | --- | --- | --- | --- | --- | --- | --- | --- | --- | --- | --- | --- | --- | --- | --- |
| N.N.O=C([O-])C1(C(=O)[O-])CCC1.[Pt+2] [Carboplatin] | 18 | 30 | 30 | 10 |  |  |  |  |  |  |  |  |  |  |  |  |  |
| VKKKKIKAEIKI-PPHAFFVLKFWADLNWGPSGEEAGAG (VKKKKIKAEIKIPPHAFFVLKFWADLNWGPSGEEAGAG) [TAZ “VL”] |  |  |  |  |  |  |  |  |  |  |  |  |  |  |  |  | effect on cellular viability, TAZ “LV” compared with TAZ “VL” [1]: same effect |
| CC(=O)O[C@@]12CO[C@@H]1C[C@H](O)[C@@]1(C)C(=O)[C@H](O)C3=C(C)[C@@H](OC(=O)[C@H](O)[C@@H](NC(=O)OC(C)(C)C)c4ccccc4)C[C@@](O)([C@@H](OC(=O)c4ccccc4)[C@H]21)C3(C)C [Docetaxel] |  |  |  |  | 0.0001 | 0.1681 | 0.0002 | −39.31 | 0.0008 | −79.23 | 0.007 | −89.07 | 0.0002 | −2.578 | 0.0002 | −95.93 | Cell viability (%) (H1650 cells; [3]): 23.41%; Cell viability (%) (H1650 cells; [4]): −41.32%; Cell viability (%) (A549 cells; [3]): 11.73%; Cell viability (%) (A549 cells; [4]): −49.02%; Cell viability (%) (H1975 cells; [3]): 5.931%; Cell viability (%) (H1975 cells; [4]): −92.17%; Cell viability (%) (H1299 cells; [3]): −10.53%; Cell viability (%) (H1299 cells; [4]): −72.38%; Cell viability (%) (HBEC wt cells; [3]): 25.93%; Cell viability (%) (HBEC wt cells; [4]): −54.02%; Cell viability (%) (HBEC RasV12 cells; [3]): 15.19%; Cell viability (%) (HBEC RasV12 cells; [4]): −88.64% |
| CC[C@H](C)[C@H](NC(=O)[C@H](CCCCN)NC(=O)[C@H](CCCCN)NC(=O)[C@H](CCCCN)NC(=O)[C@H](CCCCN)NC(=O)[C@@H](N)C(C)C)C(=O)N[C@@H](CCCCN)C(=O)N[C@@H](C)C(=O)N[C@@H](CCC(=O)O)C(=O)N[C@H](C(=O)N[C@@H](CCCCN)C(=O)N[C@H](C(=O)N[C@@H](CCCCN)C(=O)N[C@H](C(=O)N[C@@H](C)C(=O)N[C@@H](CC(N)=O)C(=O)N[C@H](C(=O)N1CCC[C@H]1C(=O)N[C@@H](CCC(N)=O)C(=O)N[C@H](C(=O)N[C@H](C(=O)N1CCC[C@H]1C(=O)N[C@@H](CCSC)C(=O)N[C@@H](CCCNC(=N)N)C(=O)N[C@@H](CC(C)C)C(=O)N[C@@H](CCCNC(=N)N)C(=O)N[C@@H](CCCCN)C(=O)N[C@@H](CC(C)C)C(=O)N1CCC[C@H]1C(=O)N[C@@H](CC(=O)O)C(=O)O)C(C)C)[C@@H](C)O)C(C)C)[C@@H](C)O)[C@@H](C)CC)[C@@H](C)CC [YAP] (H-VKKKKIKAEIKIKTANVPQTVPMRLRKLPD-OH) | >100 | >100 | >100 | >100 | >100 | −45.14 | >100 | −23.19 | >100 | −26.22 | >100 | −40.21 | >100 | −60.73 | >100 | −72.88 | Cell viability (%) (H1650 cells; [6]): −4.488%; Cell viability (%) (A549 cells; [6]): −10.25%; Cell viability (%) (H1975 cells; [6]): −5.766%; Cell viability (%) (H1299 cells; [6]): −13.8%; Cell viability (%) (HBEC wt cells; [6]): −41.35%; Cell viability (%) (HBEC RasV12 cells; [6]): −44.98%; cytotoxicity [2]: about 40% |
